Reference: ChEMBL document CHEMBL1201862, “PubChem BioAssay data set” (2004)
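These data come from cells grown in 96-well plates and exposed to compound for 48 hours at five concentrations. GI50 is the concentration that inhibits growth by half.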 The source made the active and inactive calls. Cut-off read from the data, not from the text of the source: active = GI50 up to about 1.1 µM and inactive = higher.

Experiments:
Assay in all cases: NCI anticancer screen, dose series, 48 h
[1] = test system: HOP-92
[2] = test system: K562
[3] = test system: HCT-116
[4] = test system: SK-OV-3
[5] = test system: NCI-H460
[6] = test system: SK-MEL-2
[7] = test system: LOX IMVI
[8] = test system: A549
[9] = test system: ACHN
[10] = test system: COLO 205
[11] = test system: SK-MEL-5
[12] = test system: KM12
[13] = test system: MCF7
[14] = test system: UO-31
[15] = test system: Malme-3M
[16] = test system: SK-MEL-28
[17] = test system: OVCAR-5
[18] = test system: UACC-257
[19] = test system: UACC-62
[20] = test system: HL-60

COc1cc2c(cc1O)NC(=O)[C@@H]1C[C@@H](O)CN1C2=O
GI50 [1]: > 100 µM (inactive) | GI50 [2]: 57.7 µM (inactive) | GI50 [3]: 49 µM (inactive) | GI50 [4]: > 100 µM (inactive) | GI50 [5]: 72.4 µM (inactive) | GI50 [6]: > 100 µM (inactive) | GI50 [7]: 40.2 µM (inactive) | GI50 [8]: > 100 µM (inactive) | GI50 [9]: 74.6 µM (inactive) | GI50 [10]: > 100 µM (inactive) | GI50 [11]: 58.1 µM (inactive) | GI50 [12]: 53.6 µM (inactive) | GI50 [13]: > 100 µM (inactive) | GI50 [14]: 64.4 µM (inactive) | GI50 [15]: > 100 µM (inactive) | GI50 [16]: > 100 µM (inactive) | GI50 [17]: > 100 µM (inactive) | GI50 [18]: > 100 µM (inactive) | GI50 [19]: > 100 µM (inactive)

CN(C)c1ccc(C2CC(c3ccc4ccccc4c3O)=NN2)cc1 (centres undefined)
GI50 [1]: 29.4 µM (inactive) | GI50 [2]: 25.5 µM (inactive) | GI50 [3]: 31.7 µM (inactive) | GI50 [4]: 48.5 µM (inactive) | GI50 [5]: 32.2 µM (inactive) | GI50 [6]: 35.7 µM (inactive) | GI50 [8]: 31 µM (inactive) | GI50 [9]: 38.4 µM (inactive) | GI50 [10]: 19.5 µM (inactive) | GI50 [11]: 36 µM (inactive) | GI50 [12]: 39.5 µM (inactive) | GI50 [13]: 27.7 µM (inactive) | GI50 [14]: 30.1 µM (inactive) | GI50 [15]: 51.1 µM (inactive) | GI50 [16]: 63.1 µM (inactive) | GI50 [17]: 80.7 µM (inactive) | GI50 [18]: 38.8 µM (inactive) | GI50 [19]: 36.2 µM (inactive)

C=CCC1CC(n2cc(C)c(=O)[nH]c2=O)OC1CO[Si](C)(C)C(C)(C)C (centres undefined)
GI50 [1]: 15.8 µM (inactive) | GI50 [2]: 0.163 µM (active) | GI50 [3]: 11.7 µM (inactive) | GI50 [4]: 14 µM (inactive) | GI50 [5]: 16.5 µM (inactive) | GI50 [6]: 15.5 µM (inactive) | GI50 [7]: 13 µM (inactive) | GI50 [8]: 12.3 µM (inactive) | GI50 [9]: 15.4 µM (inactive) | GI50 [10]: 13.5 µM (inactive) | GI50 [11]: 15.4 µM (inactive) | GI50 [12]: 12 µM (inactive) | GI50 [13]: 11.5 µM (inactive) | GI50 [14]: 11.4 µM (inactive) | GI50 [15]: 10.5 µM (inactive) | GI50 [16]: 16.3 µM (inactive) | GI50 [17]: 17.3 µM (inactive) | GI50 [18]: 17.2 µM (inactive) | GI50 [19]: 17.2 µM (inactive)

CN(C)/C=N/n1c2ccccc2c2ccccc21
GI50 [2]: > 100 µM (inactive) | GI50 [3]: > 100 µM (inactive) | GI50 [4]: > 100 µM (inactive) | GI50 [5]: > 100 µM (inactive) | GI50 [6]: > 100 µM (inactive) | GI50 [7]: > 100 µM (inactive) | GI50 [8]: > 100 µM (inactive) | GI50 [9]: > 100 µM (inactive) | GI50 [10]: 83.6 µM (inactive) | GI50 [11]: > 100 µM (inactive) | GI50 [12]: > 100 µM (inactive) | GI50 [13]: > 100 µM (inactive) | GI50 [14]: > 100 µM (inactive) | GI50 [15]: 50.1 µM (inactive) | GI50 [16]: > 100 µM (inactive) | GI50 [17]: > 100 µM (inactive) | GI50 [18]: > 100 µM (inactive) | GI50 [20]: > 100 µM (inactive) | GI50 [19]: > 100 µM (inactive)

c1ccc(Nc2nn3c(CCCCCCCCc4nnc5sc(Nc6ccccc6)nn45)nnc3s2)cc1
GI50 [1]: 22.9 µM (inactive) | GI50 [2]: 15.3 µM (inactive) | GI50 [3]: 24.3 µM (inactive) | GI50 [4]: 32.1 µM (inactive) | GI50 [5]: 32.4 µM (inactive) | GI50 [6]: 29.4 µM (inactive) | GI50 [7]: 22.1 µM (inactive) | GI50 [8]: 21.6 µM (inactive) | GI50 [9]: 35.8 µM (inactive) | GI50 [10]: 19.5 µM (inactive) | GI50 [11]: 12.2 µM (inactive) | GI50 [12]: 32.2 µM (inactive) | GI50 [13]: 26.4 µM (inactive) | GI50 [14]: 22.1 µM (inactive) | GI50 [15]: 37.1 µM (inactive) | GI50 [16]: 27.6 µM (inactive) | GI50 [17]: 36.9 µM (inactive) | GI50 [18]: 34.2 µM (inactive) | GI50 [19]: 34.6 µM (inactive)

COc1ccc2c(c1)c1c(n2CCN2CCCCC2)-c2cccc(OC)c2CC1
GI50 [1]: > 10 µM (inactive) | GI50 [2]: 9.04 µM (inactive) | GI50 [3]: 24.7 µM (inactive) | GI50 [4]: 33.4 µM (inactive) | GI50 [5]: 19.9 µM (inactive) | GI50 [6]: 17.4 µM (inactive) | GI50 [7]: 16.1 µM (inactive) | GI50 [8]: 27.9 µM (inactive) | GI50 [9]: 17.5 µM (inactive) | GI50 [10]: 16.7 µM (inactive) | GI50 [11]: 18.2 µM (inactive) | GI50 [12]: 13 µM (inactive) | GI50 [13]: 15.5 µM (inactive) | GI50 [14]: 10.4 µM (inactive) | GI50 [16]: 15.4 µM (inactive) | GI50 [17]: 16.1 µM (inactive) | GI50 [18]: 18.2 µM (inactive) | GI50 [19]: 14.2 µM (inactive)

COC(=O)c1cc(OCc2cc(OCc3ccc(Br)cc3)cc(OCc3ccc(Br)cc3)c2)cc(OCc2cc(OCc3ccc(Br)cc3)cc(OCc3ccc(Br)cc3)c2)c1
GI50 [1]: > 100 µM (inactive) | GI50 [2]: > 100 µM (inactive) | GI50 [3]: > 100 µM (inactive) | GI50 [4]: > 100 µM (inactive) | GI50 [5]: > 100 µM (inactive) | GI50 [6]: > 100 µM (inactive) | GI50 [8]: > 100 µM (inactive) | GI50 [9]: > 100 µM (inactive) | GI50 [10]: > 100 µM (inactive) | GI50 [11]: > 100 µM (inactive) | GI50 [12]: > 100 µM (inactive) | GI50 [13]: > 100 µM (inactive) | GI50 [14]: > 100 µM (inactive) | GI50 [15]: > 100 µM (inactive) | GI50 [16]: > 100 µM (inactive) | GI50 [17]: > 100 µM (inactive) | GI50 [18]: > 100 µM (inactive) | GI50 [19]: > 100 µM (inactive)

O=C1c2ccccc2C(=O)N1CCc1ncc[nH]1
GI50 [1]: > 100 µM (inactive) | GI50 [2]: > 100 µM (inactive) | GI50 [3]: > 100 µM (inactive) | GI50 [5]: > 100 µM (inactive) | GI50 [6]: > 100 µM (inactive) | GI50 [7]: > 100 µM (inactive) | GI50 [8]: > 100 µM (inactive) | GI50 [9]: > 100 µM (inactive) | GI50 [10]: > 100 µM (inactive) | GI50 [11]: > 100 µM (inactive) | GI50 [12]: > 100 µM (inactive) | GI50 [13]: > 100 µM (inactive) | GI50 [14]: > 100 µM (inactive) | GI50 [16]: > 100 µM (inactive) | GI50 [17]: > 100 µM (inactive) | GI50 [18]: > 100 µM (inactive) | GI50 [19]: > 100 µM (inactive)

CN(C)CCOC1(Cc2ccc(Cl)cc2Cl)CCC(C(C)(C)C)CC1 (centres undefined)
GI50 [2]: 1.69 µM (inactive) | GI50 [3]: 1.95 µM (inactive) | GI50 [4]: 10.5 µM (inactive) | GI50 [5]: < 0.01 µM (active) | GI50 [6]: 1.16 µM (inactive) | GI50 [7]: 1.78 µM (inactive) | GI50 [8]: 2.23 µM (inactive) | GI50 [9]: 2.27 µM (inactive) | GI50 [10]: 1.56 µM (inactive) | GI50 [11]: 2.36 µM (inactive) | GI50 [12]: 1.72 µM (inactive) | GI50 [13]: 2.19 µM (inactive) | GI50 [15]: 1.73 µM (inactive) | GI50 [16]: 1.47 µM (inactive) | GI50 [17]: 1.86 µM (inactive) | GI50 [18]: 1.11 µM (active) | GI50 [19]: 7.23 µM (inactive)

CC(=O)O[C@@H]1CC2[C@@H](CCC3Cc4nc5c(nc4C[C@@]32C)CC2CC[C@@H]3C(CC[C@@]4(C)C3CC[C@@H]4C(C)CCCC(C)C)[C@@]2(C)C5)C2C[C@@H]3OC4(CCC(C)CO4)C(C)[C@@H]3[C@]21C (some centres undefined)
GI50 [1]: 25.6 µM (inactive) | GI50 [2]: > 100 µM (inactive) | GI50 [3]: > 100 µM (inactive) | GI50 [4]: 3.04 µM (inactive) | GI50 [5]: > 100 µM (inactive) | GI50 [8]: > 100 µM (inactive) | GI50 [9]: 55.7 µM (inactive) | GI50 [10]: > 100 µM (inactive) | GI50 [11]: > 100 µM (inactive) | GI50 [12]: > 100 µM (inactive) | GI50 [13]: > 100 µM (inactive) | GI50 [15]: > 100 µM (inactive) | GI50 [16]: > 100 µM (inactive) | GI50 [17]: > 100 µM (inactive) | GI50 [18]: > 100 µM (inactive) | GI50 [20]: > 100 µM (inactive) | GI50 [19]: 2.01 µM (inactive)

C(/C=N/N=C1NCCCCN1)=N\N=C1NCCCCN1
GI50 [1]: > 100 µM (inactive) | GI50 [2]: > 100 µM (inactive) | GI50 [3]: > 100 µM (inactive) | GI50 [4]: > 100 µM (inactive) | GI50 [5]: > 100 µM (inactive) | GI50 [7]: > 100 µM (inactive) | GI50 [8]: > 100 µM (inactive) | GI50 [9]: > 100 µM (inactive) | GI50 [10]: > 100 µM (inactive) | GI50 [11]: > 100 µM (inactive) | GI50 [12]: > 100 µM (inactive) | GI50 [13]: > 100 µM (inactive) | GI50 [14]: > 100 µM (inactive) | GI50 [15]: > 100 µM (inactive) | GI50 [16]: > 100 µM (inactive) | GI50 [17]: > 100 µM (inactive) | GI50 [18]: > 100 µM (inactive) | GI50 [19]: > 100 µM (inactive)
